Test results as given in article PMC5118696, “Identification of inhibitors that dually target the new permeability pathway and dihydroorotate dehydrogenase in the blood stage of Plasmodium falciparum” (Scientific Reports, 2016).
Like-named read-outs stand apart in the source and are kept apart here.

Assays:
[1] = system: Hyp1-NLuc Plasmodium falciparum-infected erythrocytes (new permeability pathway, NPP); assay: microbe, parasite or virus in culture; conditions: Erythrocyte, 0.33 h, read-out: % of control remaining
[2] = system: Hyp1-NLuc Plasmodium falciparum-infected erythrocytes (new permeability pathway, NPP); assay: microbe, parasite or virus in culture; conditions: Erythrocyte, 0.33 h, read-out: Mean RLU at 28 min (As % of DMSO control)

| SMILES | activity at 2 µM [1] | activity at 2 µM [2] |
| --- | --- | --- |
| CCN(CC)CCNc1ccnc2cc(Cl)ccc12 [MMV006087] | 105% | 107% |
| CCOc1ccc(CCNC(=O)c2cccs2)cc1OCC [MMV007978] | 114% | 112% |
| CCCN(CCC)CCCNC(=O)c1cc2c(-c3ccc(OC)c(OC)c3)nn(C)c2s1 [MMV000561] | 106% | 107% |
| COc1ccc(C(=O)Nc2nonc2-c2ccc(OC)c(OC)c2)cc1Cl [MMV011567] | 103% | 103% |
| CCCc1cc(O)c2c3c(c(=O)oc2c1)CN(C)CC3 [MMV665841] | 103% | 107% |
| CN1CCN(c2ncnc3c2[nH]c2ccc(Cl)cc23)CC1 [MMV396704] | 95.6% | 95.9% |
| COc1ccc(NC(=O)C2c3ccccc3C(=O)N(CC(C)C)C2c2cccs2)cc1Cl (stereo not shown) [MMV000642] | 94% | 94.6% |
| CC(C)(C)CC(C)(C)NCC(O)COc1ccc(Cl)cc1Cl (stereo not shown) [MMV396794] | 109% | 111% |
| OC(Cn1nnc2ccccc21)Cn1c2ccc(Br)cc2c2cc(Br)ccc21 (stereo not shown) [MMV666025] | 105% | 99.5% |
| CCOc1ccc(CN2CCN(CC(O)COc3ccc(OCC(O)CN4CCN(Cc5ccc(OCC)cc5)CC4)cc3)CC2)cc1 (stereo not shown) [MMV007092] | 98.2% | 105% |
| CCOC(=O)c1cn(CC)c2cc(N(C)CCc3ccc(OC)c(OC)c3)c(F)cc2c1=O [MMV665977] | 87.8% | 106% |
| CCOC(=O)c1cn(CC)c2cc(N3CCCCC3)c(F)cc2c1=O [MMV665827] | 100% | 104% |
| CCn1c(SCC(=O)Nc2cc(C(F)(F)F)ccc2Cl)nc2ccccc2c1=O [MMV666103] | 113% | 100% |
| O=[N+]([O-])c1ccc(C=NNc2nc3ccccc3[nH]2)cc1 [MMV666607] | 102% | 103% |
| COCCNC(=O)c1ccc(OC2CCN(Cc3ccc(F)c(F)c3)CC2)c(Cl)c1 [MMV666072] | 115% | 103% |
| COc1ccc(-c2nc(NC(=O)CS(=O)(=O)c3ccc(F)cc3)sc2C)cc1 [MMV665915] | 98.3% | 101% |
| CC(C)CNC(=O)c1c(N)n(CCc2ccccc2F)c2nc3ccccc3nc12 [MMV396744] | 110% | 108% |
| Brc1ccc(Nc2nc3ccccc3nc2Nc2ccc(Br)cc2)cc1 [MMV007224] | 104% | 95.5% |
| Cc1ccc2cc3c(N)c4c(C)ccc(C)c4nc3nc2c1 [MMV666079] | 104% | 96% |
| CCOc1cc(Cl)c(C(C)NC(=O)c2cccc(OC)c2)cc1OCC (stereo not shown) [MMV665803] | 124% | 113% |
| CCN(CC)S(=O)(=O)c1ccc(-c2csc(Nc3ccc(C)c(C)c3)n2)cc1 [MMV009108] | 107% | 107% |
| COc1ccc(N2CCN(C(CNC(=O)CC(C)(C)C)c3ccc4c(c3)OCO4)CC2)cc1 (stereo not shown) [MMV665908] | 97.1% | 92.5% |
| c1ccc(CNc2nc(Nc3ccccc3)nc3ccccc23)cc1 [MMV006169] | 114% | 102% |

| SMILES | activity at 2 µM [1] | activity at 2 µM [2] |
| --- | --- | --- |
| COc1ccc(C=C2SC(Nc3ccc(F)cc3)=NC2=O)c(OC)c1 [MMV084434] | 27.1% | 36.5% |
| COc1ccc(C(C)=O)cc1N1C(=O)C2C(C1=O)C1(c3ccccc3)C(=O)C2(c2ccccc2)C(c2ccc(C)cc2)=C1c1ccc(C)cc1 (stereo not shown) [MMV007695] | 98.4% | 98.9% |
| Cc1ccc(N2C3c4ccccc4N(S(=O)(=O)c4ccc(C)cc4)C2c2ccccc2N3S(=O)(=O)c2ccc(C)cc2)cc1 [MMV007160] | 103% | 103% |
| COc1ccc(Nc2cc(C)nc(NCc3ccccc3)n2)cc1 [MMV006825] | 110% | 107% |
| C[n+]1c2ccccc2nc2ccc(NCCO)cc21 [MMV396693] | 100% | 101% |
| COc1ccc(NC(=O)C2c3ccccc3C(=O)N(CC(C)C)C2c2cccs2)cc1 (stereo not shown) [MMV000662] | 85.7% | 85.9% |
| CC(C)(C)CC(C)(C)NCC(O)COc1ccc2c(c1)CCC2 (stereo not shown) [MMV665817] | 120% | 106% |
| CCCCCC(=O)N1c2ccccc2N=C2CC(c3ccc(OC)c(OC)c3)CC(O)=C2C1c1ccc(C(F)(F)F)cc1 (stereo not shown) [MMV085583] | 102% | 103% |
| Cc1ccccc1OCCSc1nc2ccc(NC(=O)c3ccccc3)cc2s1 [MMV007577] | 98.1% | 97.3% |
| COC(=O)c1ccc(Cl)c2c1C1C=CCC1C(c1cccc3ccccc13)N2 (stereo not shown) [MMV667489] | 100% | 103% |
| O=C(Nc1cccc(-c2nc3ccccc3[nH]2)c1)c1cccc(NC(=O)c2ccco2)c1 [MMV665883] | 102% | 107% |
| CCN(CC)CCNc1ncnc2c1[nH]c1ccc(Cl)cc12 [MMV396703] | 99.7% | 110% |
| Cn1c(=O)c2cc(C(=O)NCCCN3CCCCCC3)sc2c2ccccc21 [MMV019313] | 74.1% | 104% |
| CCN1CCN(c2cc(C)c3cc(NC(=O)c4ccc(OC)c(OC)c4)ccc3n2)CC1 [MMV019074] | 118% | 104% |
| COc1ccc(-c2cc3c(SCC(=O)Nc4cc(C(F)(F)F)ccc4Cl)nccn3n2)cc1 [MMV396679] | 105% | 106% |
| c1ccc2c(NCCCCCCNc3c4c(nc5ccccc35)CCCC4)c3c(nc2c1)CCCC3 [MMV019555] | 109% | 101% |
| O=C(Nc1ccc(-c2nc3cc(NC(=O)c4ccc(Cl)cc4)ccc3[nH]2)cc1)c1ccc(Cl)cc1 [MMV006962] | 99.7% | 101% |
| CCCCC(O)(c1ccc(Cl)cc1)C(CN1CCOCC1)c1ccc(Cl)cc1 (stereo not shown) [MMV000619] | 114% | 108% |
| CC(C)(C)c1ccc(C(=O)Nc2c3c(nn2-c2cccc(Cl)c2)CSC3)cc1 [MMV666123] | 108% | 104% |
| CCN(CC)CCNc1ncnc2c1[nH]c1ccc(Br)cc12 [MMV006545] | 110% | 120% |
| N=c1c2ccccc2nnn1-c1cccc(C(F)(F)F)c1 [MMV665923] | 89.5% | 94.3% |
| c1ccc(Cn2c(N=Nc3c(Nc4ccccc4)ccc4ccccc34)nc3ccccc32)cc1 [MMV666023] | 101% | 102% |
| Cc1ccc(C)c(Cn2c(N3CCC(C(=O)NCc4cccs4)CC3)nc3ccccc32)c1 [MMV019741] | 112% | 104% |

| SMILES | activity at 2 µM [1] | activity at 2 µM [2] |
| --- | --- | --- |
| OC(CNCc1ccccc1)Cn1c2ccccc2c2ccccc21 (stereo not shown) [MMV000839] | 110% | 107% |
| Cc1cc(=O)oc2c1ccc1oc(C(=O)c3ccccc3)c(C)c12 [MMV006753] | 108% | 103% |
| O=C(Nc1ccccc1O)c1ccc(Oc2cccc(C(=O)Nc3ccccc3O)c2)cc1 [MMV665888] | 104% | 102% |
| Cc1sc(NC(=O)c2ccccc2)c(C(c2cccs2)N2CCN(c3ccccc3)CC2)c1C (stereo not shown) [MMV396652] | 104% | 101% |
| CC(=O)NCCc1nc2ccccc2n1Cc1ccc(C(C)C)cc1 [MMV007617] | 82.1% | 95.2% |
| Nc1nc(Nc2cccc(F)c2)nc2ccccc12 [MMV080034] | 94.5% | 93.1% |
| COc1ccc(-c2nonc2NC(=O)c2cccc(Cl)c2)cc1OC [MMV020660] | 109% | 108% |
| CN(C)CCNc1cc(-c2ccccc2)nc2ccccc12 [MMV006704] | 92% | 90.8% |
| COc1ccc(CNC(=O)c2cc3c(=O)n4ccccc4nc3n(CCc3ccccc3)c2=N)cc1 [MMV665881] | 98% | 104% |
| Oc1ccc(Br)cc1CN1CCN(Cc2ccc(Cl)cc2)CC1 [MMV665809] | 91.7% | 93.3% |
| CCOC(=O)c1cnc2ccc(OC)cc2c1NCc1ccccc1 [MMV665813] | 114% | 115% |
| O=C(Nc1ccc(-c2nc3cc4ccccc4cc3[nH]2)cc1)c1cccc(Br)c1 [MMV019241] | 113% | 103% |
| COc1ccc(C(=O)Nc2ccc3nc(N4CCCCC4)cc(C)c3c2)cc1OC [MMV019758] | 108% | 100% |
| COc1ccc(CCN2CCC(CN(C)Cc3cnn(-c4ccccc4)c3)CC2)cc1 [MMV666069] | 105% | 102% |
| COc1ccc2nc(C)cc(Nc3ccccc3O)c2c1 [MMV274073] | 110% | 110% |
| N#Cc1nc(Cc2cccc3ccccc23)oc1N1CCN(C(c2ccccc2)c2ccccc2)CC1 [MMV396726] | 99.5% | 99.9% |
| CCc1ccc(Nc2cc(C)c3ccc(O)cc3n2)cc1 [MMV000570] | 107% | 106% |
| COc1cc2cc(C(=O)Nc3ccccc3)c(N)nc2cc1OC [MMV006767] | 119% | 119% |
| COc1nc(Nc2ccc(C(C)C)cc2)nc(OC)n1 [MMV007808] | 110% | 110% |
| COc1ccc(CCNC(=O)c2cc(S(=O)(=O)N3CC(C)CC(C)C3)ccc2Sc2ccc(F)cc2)cc1OC (stereo not shown) [MMV007557] | 106% | 102% |
| OC(CNC1CCCCC1)Cn1c2ccc(I)cc2c2cc(I)ccc21 (stereo not shown) [MMV665882] | 93.7% | 103% |
| COc1ccccc1C(=O)ON=C(N)Cc1cccc2ccccc12 [MMV666686] | 96.4% | 102% |
